Laboratory results reported in patent US20250268931A1, “TRANSCRIPTIONAL INHIBITOR FOR IMMUNE-RELATED GENE” (The University of Tokyo, priority 2022, published 2025).

What was measured:
IFN-β [1] = assay: IFN-β concentration in culture supernatant of LPS-stimulated Raw264.7 cells (ELISA); type: cell-based; settings: PIPA 1, 3 or 10 μM 24 h, then LPS 20 ng/mL 16 h
Description: Raw264.7 cells, a macrophage cell line, were seeded on a 96-well plate at a cell density of 2×10^4 cells/well, and were then culture for 8 hours for adhesion. Thereafter, IRF-PIPA was added to the cultured cells to final concentrations of 1, 3, or 10 μM. After completion of the culture for 24 hours, LPS was added to the cultured cells to a final concentration of 20 ng/mL, and the obtained mixture was then cultured for 16 hours, followed by the recovery of the supernatant. The supernatant was 2-fold diluted with 1% BSA-PBS, and the IFN-β concentration was then measured by ELISA.
Raw264.7 cells, a cell line, were purchased from RIKEN Cell Bank, and were then cultured using D-MEM (Nacalai Tesque) containing 10% FBS (SIGMA-ALDRICH) and Penicillin-Streptomycin mixed solution (Nacalai Tesque).
(§1) 2×10^4 Raw264.7 cells were seeded on a plate, and were then treated with IRF-PIPA 1, IRF-PIPA 2, IRF-PIPA 3 or IRF-PIPA 4 for 24 hours. Thereafter, the cells were stimulated with LPS (Lipopolysaccharide, SIGMA-ALDRICH) for 16 hours, and the culture supernatant was then recovered. The concentration of cytokine in the culture supernatant was measured using ELISA kit (R&D SYSTEMS) according to the standard protocols. The culture supernatant was diluted with 1% BSA-PBS, as necessary, and was then analyzed. 2.5×10^5 Mouse peritoneal macrophages were seeded on a plate, and were then treated with IRF-PIPA 3 for 16 or 24 hours. Thereafter, the cells were stimulated with Poly(I:C) (InvivoGen) for 16 hours or with mRNA vaccine (Moderna) for 20 to 24 hours, and the culture supernatant was then recovered. The concentration of cytokine in the culture supernatant was measured using ELISA kit (R&D SYSTEMS) according to the same standard protocols. On the other hand, the concentration of cytokine in mouse plasma was measured by administering 400 μg/mouse IRF-PIPA 3 into the abdominal cavity of wild-type mice, then administering 250 μg of Poly(I:C) into the same abdominal cavity 24 hours after the IRF-PIPA 3 administration, then collecting blood further 2 hours after the Poly(I:C) administration, and then measuring the cytokine concentration in the plasma using ELISA kit (R&D SYSTEMS) according to standard protocols.

peritoneal macrophages = assay: Cytotoxic activity: dsDNA concentration and LDH activity in culture supernatant; type: cell-based, mice
Description: In order to verify the cytotoxic activity of IRF-PIPA 3, dsDNA concentration (left view in the figure) and LDH concentration (right view in the figure) in the culture supernatant were measured. The same experiment as that in FIG. 2 was carried out, and the culture supernatant was recovered. A lysate obtained by mixing 2.5×10^5 peritoneal macrophages with 90 μL of 10% FBS-RPMI or D-MEM medium and 10 μL of Lysis Buffer, and then disrupting the cells, was used as a positive control. […] Using Octet K2, the binding of each concentration of IRF-PIPA 3 shown in the figure and a target DNA sequence was analyzed. After mixing a PIPA solution with target DNA, the binding of the two substances was measured for 60 seconds. […] From changes in the binding and dissociation at each concentration over time, a Kd value was calculated as a dissociation constant indicating a binding force.
The concentration of dsDNA in the culture supernatant was measured using Nano drop one (Thermo Fisher SCIENTIFIC). In LDH assay, LDH activity was measured using Cytotoxicity LDH Assay Kit-WST (DOJINDO LABORATORIES) according to standard protocols. As a positive control, a lysate obtained by mixing 2.5×10^5 peritoneal macrophages with 90 μL of 10% FBS-RPMI or D-MEM medium and 10 μL of Lysis Buffer, and then disrupting the cells, was used.

[2] = system: Ifnb1, Il6, and Tnf genes; assay: In vivo relative mRNA expression in peritoneal macrophages after Poly(I:C) (qRT-PCR); parameters: species or system mice; settings: 400 μg/mouse i.p., Poly(I:C) 250 μg/mouse i.p. 3 h later, peritoneal macrophages 2 h later
Description: IRF-PIPA 3 was administered into the abdominal cavity of wild-type mice in an amount of 400 μg/mouse, and 3 hours after the administration, 250 μg/mouse Poly(I:C) was also administered into the abdominal cavity. Two hours after the administration of Poly(I:C), peritoneal macrophages were recovered, and the relative expression levels of Ifnb1, Il6, and Tnf genes were then analyzed by qRT-PCR.

IFN-β, IL-6 and TNF-α [3] = assay: In vivo cytokine protein concentration in plasma after Poly(I:C) (ELISA); parameters: species or system mice
Description: […] Two hours after the administration of Poly(I:C), blood was collected, and individual protein concentrations of IFN-β, IL-6 and TNF-α in the plasma were then measured by an ELISA method.
as §1

IFN-β [4] = assay: IFN-β transcription in peritoneal macrophages treated with mRNA vaccine against SARS-COV-2 (qRT-PCR, ELISA); type: cell-based, mice; settings: 3 μM or 10 μM, mRNA vaccine (Moderna) 1 μg/mL 20 hours
IFN-β, IL-6 and TNF-α [5] = assay: Cytokine protein expression in peritoneal macrophages treated with LNP-mRNA encoding ovalbumin (ELISA); type: cell-based, mice; settings: 6 μM, LNP-mRNA (OVA) 0.5 μg/mL 20 to 24 hours
Description: Peritoneal macrophages were harvested from wild-type mice, and were then seeded on a 96-well plate at a cell density of 2.5×10^5 cells/well, followed by culturing for 2 hours. Thereafter, the cultured cells were washed twice with PBS. Subsequently, IRF-PIPA 3 was suspended in 10% FBS-RPMI or D-MEM to a final concentration of 6 μM, and was then added to the wells. After completion of the culture for 16 hours, an mRNA vaccine was added to the cultured cells to a final concentration of 0.5 μg/mL, and the obtained mixture was then cultured for 20 to 24 hours. Thereafter, the culture supernatant was recovered, and each protein concentration of IFN-β, IL-6 or TNF-α was then measured by ELISA.
as §1, with “Thereafter, the cells were stimulated with Poly(I:C) (InvivoGen) for 16 hours or with mRNA vaccine (Moderna) for 20 to 24 hours, and the culture supernatant was then recovered.” left out

RBD = RBD concentration in plasma after mRNA vaccine plus Poly(I:C) (ELISA); type: in vivo, mice; settings: 400 μg/mouse i.m. or i.p., 24 h later mRNA vaccine 1 μg/mouse i.m. plus Poly(I:C) 250 μg/mouse, blood one day later
[6] = peritoneal macrophages, same experiment as FIG. 2 (3 or 10 μM)
[7] = 400 μg/mouse i.p., Poly(I:C) 250 μg/mouse i.p. 24 hours, 1, 4 or 7 days later, blood 2 h later
[8] = plasma IFN-β, IL-6, TNF-α, Poly(I:C) 1, 4 or 7 days after IRF-PIPA 3

SMILES: CC(=O)Nc1cn(C)c(C(=O)Nc2cc(C(=O)NCCC(=O)Nc3cc(C(=O)Nc4cn(C)c(C(=O)NCCC(=O)Nc5cn(C)c(C(=O)NCCCC(=O)Nc6cc(C(=O)Nc7cc(C(=O)Nc8cc(C(=O)NCCC(=O)Nc9cc(C(=O)Nc%10cc(C(=O)NCCC(=O)NCCCN(C)C)n(C)c%10)n(C)c9)n(C)c8)n(C)c7)n(C)c6)n5)n4)n(C)c3)n(C)c2)n1 [IRF-PIPA 3]
- concentration dependence of suppression of IFN-β production (IFN-β [1]): concentration-dependent suppression was observed
- suppression of IFN-β production (IFN-β [1]; ELISA of supernatant): strongest suppressive action among the 4 PIPAs
- cytotoxic activity (peritoneal macrophages; concentration range in which IRF-PIPA 3 shows strong suppressive action): does not exhibit cytotoxic activity
- LDH activity in the culture supernatant (peritoneal macrophages; [6]): not increased at all
- amount of DNA in the culture supernatant (peritoneal macrophages; [6]): not increased at all
- expression level of Ifnb1 mRNA in vivo [2]: significantly suppressed
- expression level of Il6 mRNA in vivo [2]: significantly suppressed
- expression level of Tnf mRNA in vivo [2]: significantly suppressed
- IFN-β protein concentration in plasma (IFN-β, IL-6 and TNF-α [3]; [7]): significantly suppressed
- IL-6 protein concentration in plasma (IFN-β, IL-6 and TNF-α [3]; [7]): significantly suppressed
- TNF-α protein concentration in plasma (IFN-β, IL-6 and TNF-α [3]; [7]): significantly suppressed
- time after administration of highest suppressive effect (IFN-β, IL-6 and TNF-α [3]; [8]): 1 days
- time after administration until which the suppressive effect was sustained (attenuated) (IFN-β, IL-6 and TNF-α [3]; [8]): ≥ 7 days
- IFN-b transcription after addition of the mRNA vaccine (Ifnb1 relative expression, IFN-β concentration) (IFN-β [4]): strongly suppressed IFN-b transcription after addition of the mRNA vaccine in a concentration-dependent manner
- expression of IFN-β protein after LNP-mRNA (IFN-β, IL-6 and TNF-α [5]): strongly suppressed
- expression of IL-6 protein after LNP-mRNA (IFN-β, IL-6 and TNF-α [5]): strongly suppressed
- expression of TNF-α protein after LNP-mRNA (IFN-β, IL-6 and TNF-α [5]): strongly suppressed
- concentration of the RBD protein in plasma (RBD): a decrease in the concentration of the RBD protein caused by Poly(I: C) was suppressed
